According to PubChem BioAssay AID2060498 (Molecular Pharmacology Branch, DTP, NCI, 2025):

Test system: 171881-019-R-J1-PDC tumor spheroids, viability
Assay: Anticancer human tumor 171881-019-R-J1-PDC patient-derived invasive breast carcinoma cell line growth inhibition [GQUAD]
Settings: spheroids with HUVEC and MSC; for IC50: curve of first compound; for viability, T/C: stronger effect = lower value
Procedure, shortened: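 Viability of tumor cells grown as complex spheroids with endothelial and stromal cells, exposed to drug combinations. Top concentration at or near clinical Cmax (else 10 microM), diluted in half-log increments.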

[1] = second compound 0.0316 µM, first compound 0.0316 µM
[2] = second compound 0.0316 µM, first compound 0.1 µM
[3] = second compound 0.0316 µM, first compound 0.316 µM
[4] = second compound 0.0316 µM, first compound 1 µM
[5] = second compound 0.0316 µM, first compound 3.16 µM
[6] = second compound 0.0316 µM, first compound 10 µM
[7] = second compound 0.1 µM, first compound 0.0316 µM
[8] = second compound 0.1 µM, first compound 0.1 µM
[9] = second compound 0.1 µM, first compound 0.316 µM
[10] = second compound 0.1 µM, first compound 1 µM
[11] = second compound 0.1 µM, first compound 3.16 µM
[12] = second compound 0.1 µM, first compound 10 µM
[13] = second compound 0.316 µM, first compound 0.0316 µM
[14] = second compound 0.316 µM, first compound 0.1 µM
[15] = second compound 0.316 µM, first compound 0.316 µM
[16] = second compound 0.316 µM, first compound 1 µM
[17] = second compound 0.316 µM, first compound 3.16 µM
[18] = second compound 0.316 µM, first compound 10 µM
[19] = second compound 1 µM, first compound 0.0316 µM
[20] = second compound 1 µM, first compound 0.1 µM
[21] = second compound 1 µM, first compound 0.316 µM
[22] = second compound 1 µM, first compound 1 µM
[23] = second compound 1 µM, first compound 3.16 µM
[24] = second compound 1 µM, first compound 10 µM
[25] = second compound 3.16 µM, first compound 0.0316 µM
[26] = second compound 3.16 µM, first compound 0.1 µM
[27] = second compound 3.16 µM, first compound 0.316 µM
[28] = second compound 3.16 µM, first compound 1 µM
[29] = second compound 3.16 µM, first compound 3.16 µM
[30] = second compound 3.16 µM, first compound 10 µM
[31] = second compound 10 µM, first compound 0.0316 µM
[32] = second compound 10 µM, first compound 0.1 µM
[33] = second compound 10 µM, first compound 0.316 µM
[34] = second compound 10 µM, first compound 1 µM
[35] = second compound 10 µM, first compound 3.16 µM
[36] = second compound 10 µM, first compound 10 µM
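For viability, T/C in this document: 100% = DMSO vehicle control viability.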

SMILES: Nc1ccn(C2OC(CO)C(O)C2(F)F)c(=O)n1 (centres undefined) + Cc1[nH]c2ccc(F)cc2c1-c1nc2c3cccnc3c3ncccc3c2[nH]1
- IC50 (second compound 0.0316 µM): < 0.0316 µM
- IC50 (second compound 0.1 µM): < 0.0316 µM
- IC50 (second compound 0.316 µM): < 0.0316 µM
- IC50 (second compound 1 µM): < 0.0316 µM
- IC50 (second compound 3.16 µM): < 0.0316 µM
- IC50 (second compound 10 µM): < 0.0316 µM
- viability, T/C [1]: 25.9%
- viability, T/C [2]: 28.6%
- viability, T/C [3]: 39.9%
- viability, T/C [4]: 38.6%
- viability, T/C [5]: 36.5%
- viability, T/C [6]: 31.6%
- viability, T/C [7]: 25.8%
- viability, T/C [8]: 30.9%
- viability, T/C [9]: 38.6%
- viability, T/C [10]: 41.2%
- viability, T/C [11]: 35.9%
- viability, T/C [12]: 31.3%
- viability, T/C [13]: 26.7%
- viability, T/C [14]: 29.6%
- viability, T/C [15]: 35.7%
- viability, T/C [16]: 35.2%
- viability, T/C [17]: 38.6%
- viability, T/C [18]: 31.7%
- viability, T/C [19]: 26.7%
- viability, T/C [20]: 28.6%
- viability, T/C [21]: 38%
- viability, T/C [22]: 35.8%
- viability, T/C [23]: 39.1%
- viability, T/C [24]: 31.1%
- viability, T/C [25]: 18.5%
- viability, T/C [26]: 14%
- viability, T/C [27]: 19.1%
- viability, T/C [28]: 16.8%
- viability, T/C [29]: 19.9%
- viability, T/C [30]: 16.2%
- viability, T/C [31]: 20.3%
- viability, T/C [32]: 23.7%
- viability, T/C [33]: 27.2%
- viability, T/C [34]: 28.6%
- viability, T/C [35]: 26.6%
- viability, T/C [36]: 26.1%

SMILES: O=c1[nH]cc(F)c(=O)[nH]1 + Cc1cnc(CNC(=O)c2c(=O)c3ccc(N4CCCN(C)CC4)nc3n3c2sc2ccccc23)cn1
- IC50 (second compound 0.0316 µM): > 10 µM
- IC50 (second compound 0.1 µM): > 10 µM
- IC50 (second compound 0.316 µM): > 10 µM
- IC50 (second compound 1 µM): > 10 µM
- IC50 (second compound 3.16 µM): > 10 µM
- IC50 (second compound 10 µM): > 10 µM
- viability, T/C [1]: 80.2%
- viability, T/C [2]: 69.5%
- viability, T/C [3]: 57.5%
- viability, T/C [4]: 57.4%
- viability, T/C [5]: 54.5%
- viability, T/C [6]: 57%
- viability, T/C [7]: 77.7%
- viability, T/C [8]: 67.7%
- viability, T/C [9]: 62.2%
- viability, T/C [10]: 58.3%
- viability, T/C [11]: 59.4%
- viability, T/C [12]: 60.4%
- viability, T/C [13]: 68.9%
- viability, T/C [14]: 71.2%
- viability, T/C [15]: 65.6%
- viability, T/C [16]: 58.7%
- viability, T/C [17]: 65.2%
- viability, T/C [18]: 59.4%
- viability, T/C [19]: 67.7%
- viability, T/C [20]: 60.6%
- viability, T/C [21]: 65.5%
- viability, T/C [22]: 60.2%
- viability, T/C [23]: 66.2%
- viability, T/C [24]: 63.1%
- viability, T/C [25]: 65%
- viability, T/C [26]: 59.6%
- viability, T/C [27]: 58.9%
- viability, T/C [28]: 55.5%
- viability, T/C [29]: 65%
- viability, T/C [30]: 62.3%
- viability, T/C [31]: 59.1%
- viability, T/C [32]: 59.6%
- viability, T/C [33]: 55.1%
- viability, T/C [34]: 57.7%
- viability, T/C [35]: 61.5%
- viability, T/C [36]: 54%
